Measurements reported in patent US20160045505A1, “COMPOUNDS AND COMPOSITIONS FOR THE TREATMENT OF PARASITIC DISEASES” (NOVARTIS AG, priority 2013, published 2016).
Read-outs that look alike come from different tables or passages of the source.

What was measured:
[1] = tested on: Leishmania donovani axenic amastigote parasites; assay: Leishmania donovani axenic amastigote proliferation assay (Cell TiterGlo luminescence, 2 day incubation); type: cell-based; conditions: Leishmania donovani, L. donovani axenic amastigotes; read-out: L. donovani amastigotes EC50
[2] = tested on: Trypanosoma brucei Lister 427 strain, bloodstream form; assay: Assay for proliferation of kinetoplastid parasite Trypanosoma brucei (Cell Titer Glo, 48 hours); type: cell-based; conditions: Trypanosoma brucei
Procedure, shortened: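 Bloodstream-form T. brucei Lister 427 in HMI-9 medium was exposed to compound (DMSO vehicle) for 48 hours at 37° C, 5% CO2. Parasite growth was read as ATP by CellTiter-Glo luminescence, with EC50 calculated from percent inhibition.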

[3] = tested on: L. donovani HU3 strain in mouse peritoneal macrophages; assay: Assay for proliferation of Leishmania parasites in infected mouse peritoneal macrophages (SybrGreen staining, high-content imaging, 5 days); type: cell-based, Leishmania donovani; conditions: Leishmania donovani, Peritoneal macrophage, L. donovani in mouse peritoneal macrophages; read-out: L. donovani Macrophage EC50
[4] = tested on: Trypanosoma cruzi amastigotes (Tulahuen strain expressing Lac-Z) cultured in 3T3 fibroblast cells; assay: microbe, parasite or virus in culture; type: cell-based; conditions: Trypanosoma cruzi, TULAHUEN, Fibroblast, T. cruzi amastigotes in 3T3 fibroblast cells; read-out: T cruzi EC50
[5] = T. brucei Lister 427 bloodstream form, read-out: T. brucei EC50

SMILES | EC50 [1] [nM] | EC50 [2, 5] [µM] | EC50 [3] [µM] | EC50 [4] [µM] | EC50 ([2]; read-out: T. brucei EC50 (μM)) [µM]
CC(C)OC(=O)Nc1cnc2nc(-c3cc(Nc4ncccc4OC(F)(F)F)ccc3F)cn2c1 [Compound 487] | > 25000 | > 50 | > 50 | > 16.6 | –
Cc1nc(C)c(C(=O)Nc2ccc(F)c(-c3cn4cc(Nc5ncccc5C(F)(F)F)cnc4n3)c2)o1 [Compound 488] | 32 | 0.058 | 0.132 | 0.036 | –
CC1(O)CN(c2cnc3nc(-c4cc(NC(=O)N5CCCC5)ccc4Cl)cn3c2)C1 [Compound 489] | 1770 | 0.152 | 7.79 | 6.71 | –
Cc1nc(C)c(C(=O)Nc2ccc(F)c(-c3cn4cc(N5C[C@@H](C)O[C@@H](C)C5)cnc4n3)c2)o1 [Compound 491] | 234 | 0.14 | 0.743 | 0.296 | –
Cc1nc(C)c(C(=O)Nc2ccc(F)c(-c3cn4cc(N5CCC[C@@H]5C(F)(F)F)cnc4n3)c2)o1 [Compound 492] | 841 | 0.472 | 1.53 | 0.31 | –
Cc1nc(C)c(C(=O)Nc2ccc(F)c(-c3cn4cc(N5CCCC5)cnc4n3)c2)o1 [Compound 493] | 260 | 0.04 | 0.192 | 0.031 | –
Cc1nc(C)c(C(=O)Nc2ccc(F)c(-c3cn4cc(NC5CC5)cnc4n3)c2)o1 [Compound 494] | 3520 | 1.01 | 4.06 | 1.3 | –
O=C(Nc1ccc(Cl)c(-c2cn3cc(N4CCCC4)cnc3n2)c1)N1CCCC1 [Compound 495] | 235 | 0.036 | 0.233 | 0.055 | –
CC(C)OC(=O)Nc1cnc2nc(-c3cc(Nc4nccc5ccoc45)ccc3F)cn2c1 [Compound 497] | 641 | 0.496 | 1.28 | 0.112 | –
COc1cccnc1Nc1ccc(F)c(-c2cn3cc(NC(=O)OC(C)C)cnc3n2)c1 [Compound 498] | 849 | 0.478 | 28 | 1.34 | –
CC(C)OC(=O)Nc1cnc2nc(-c3cc(NC4=NCCO4)ccc3F)cn2c1 [Compound 499] | > 25000 | 4.67 | 8.26 | 9.42 | –
CC(C)OC(=O)Nc1cnc2nc(-c3cc(NC4=NC(C)(C)CO4)ccc3F)cn2c1 [Compound 500] | > 25000 | > 50 | > 17.6 | > 20 | –
CC(C)OC(=O)Nc1cnc2nc(-c3cc(NC4=NCC(C)O4)ccc3F)cn2c1 (stereo not shown) [Compound 501] | > 25000 | 3.14 | > 50 | 10.5 | –
CC1COC(Nc2ccc(F)c(-c3cn4cc(NC(=O)OC(C)C)cnc4n3)c2)=N1 (stereo not shown) [Compound 502] | > 25000 | 6.73 | 16 | 11 | –
CC(C)OC(=O)Nc1cnc2nc(-c3cc(NC4=NCC(C)(C)O4)ccc3F)cn2c1 [Compound 503] | > 25000 | 36.7 | 26.6 | > 20 | –
Cc1nc(C)c(C(=O)Nc2ccc(F)c(-c3cn4cc(NC5=NCC(C)O5)cnc4n3)c2)o1 (stereo not shown) [Compound 504] | 2970 | 0.976 | 5.51 | 10.7 | –

SMILES | EC50 [1] [nM] | EC50 [2, 5] [µM] | EC50 [3] [µM] | EC50 [4] [µM] | EC50 ([2]; read-out: T. brucei EC50 (μM)) [µM]
Cc1nc(C)c(C(=O)Nc2ccc(F)c(-c3cn4cc(NC5=NC(C)(C)CO5)cnc4n3)c2)o1 [Compound 505] | 1170 | 0.845 | 3.48 | 5 | –
Cc1nc(C)c(C(=O)Nc2ccc(F)c(-c3cn4cc(NC5=NCC(C)(C)O5)cnc4n3)c2)o1 [Compound 507] | 1850 | 1.26 | 5.8 | 9.92 | –
Cc1nc(C)c(C(=O)Nc2ccc(F)c(-c3cn4cc(NC5=NCC(C(F)(F)F)O5)cnc4n3)c2)o1 (stereo not shown) [Compound 508] | 1710 | 4.36 | 8.24 | 11.5 | –
Cc1nc(C)c(C(=O)Nc2ccc(F)c(-c3cn4cc(NC5=NCC(C)(C)N5)cnc4n3)c2)o1 [Compound 509] | > 25000 | 10.3 | > 50 | > 20 | –
Cc1nc(C)c(C(=O)Nc2ccc(F)c(-c3cn4cc(NC5=N[C@H]6CCCC[C@@H]6O5)cnc4n3)c2)o1 [Compound 510] | 1600 | 4.01 | 8.13 | 2.61 | –
Cc1nc(C)c(C(=O)Nc2ccc(F)c(-c3cn4cc(NC5=N[C@@H]6CCC[C@H]6O5)cnc4n3)c2)o1 [Compound 511] | 1550 | 0.59 | 2.28 | 3.68 | –
Cc1nc(C)c(C(=O)Nc2ccc(F)c(-c3cn4cc(NC(=O)OCCCCl)cnc4n3)c2)o1 [Compound 519] | 244 | 0.366 | 1.62 | 3.26 | –
Cc1nc(C)c(C(=O)Nc2ccc(F)c(-c3cn4cc(NC5=NC(C)CO5)cnc4n3)c2)o1 (stereo not shown) [Compound 524] | 3510 | 1 | 9.54 | 12.7 | –
Cc1nnc(C(=O)Nc2cccc(-c3cn4cc(NC(=O)OC(C)C)cnc4n3)c2)o1 [Compound 526, isopropyl (2-(3-(5-methyl-1,3,4-oxadiazole-2-carboxamido)phenyl)imidazo[1,2-a]pyrimidin-6-yl)carbamate] | > 25000 | > 50 | > 50 | > 20 | –
Cc1nnc(C(=O)Nc2ccc(Cl)c(-c3cn4cc(NC(=O)OC(C)C)cnc4n3)c2)o1 [Compound 527] | > 25000 | > 50 | 5.77 | > 20 | –
Cc1nc(C(=O)Nc2ccc(Cl)c(-c3cn4cc(NC(=O)OC(C)C)cnc4n3)c2)no1 [Compound 528] | > 25000 | 6.96 | 8.94 | > 20 | –
CC(C)OC(=O)Nc1cnc2nc(-c3cc(N4C(=O)c5ccccc5C4=O)ccc3Cl)cn2c1 [Compound 530, isopropyl (2-(2-chloro-5-(1,3-dioxoisoindolin-2-yl)phenyl)imidazo[1,2-a]pyrimidin-6-yl)carbamate] | > 13100 | – | > 50 | > 20 | > 50
CC(C)OC(=O)Nc1cnc2nc(-c3cc(-n4cn[nH]c4=O)ccc3Cl)cn2c1 [Compound 535] | > 25000 | 31.1 | > 35.5 | > 20 | –
C=C(C)c1cnc2nc(-c3cc(NC(=O)c4oc(C)nc4C)ccc3F)cn2c1 [Compound 537, N-(4-fluoro-3-(6-(prop-1-en-2-yl)imidazo[1,2-a]pyrimidin-2-yl)phenyl)-2,4-dimethyloxazole-5-carboxamide] | 124 | 0.164 | 0.286 | 0.103 | –
Cc1nc(C)c(C(=O)Nc2ccc(F)c(-c3cn4cc(C5CCNCC5)cnc4n3)c2)o1 [Compound 538, N-(4-fluoro-3-(6-(piperidin-4-yl)imidazo[1,2-a]pyrimidin-2-yl)phenyl)-2,4-dimethyloxazole-5-carboxamide] | 2360 | 0.613 | 1.86 | 0.447 | –
